Laboratory results taken from US20120157452A1, “1H-PYRAZOLO[3,4-B] PYRIDINE COMPOUNDS FOR INHIBITING RAF KINASE” (GENENTECH, INC., priority 2009, published 2012).

Target: T1, V600E full-length B-Raf (Homo sapiens, UniProt P15056, V600E)
T1 construct: made in house; host or cells: Sf9 insect cells (baculovirus)
Assay: B-Raf IC50 assay: incorporation of radio labeled phosphate from [γ-33P]ATP into FSBA-modified wild-type MEK
Assay type: biochemical
Source text: Determining the activity of Raf in the sample is possible by a number of direct and indirect detection methods (US 2004/0082014). Activity of human recombinant B-Raf protein may be assessed in vitro by assay of the incorporation of radio labeled phosphate to recombinant MAP kinase (MEK), a known physiologic substrate of B-Raf, according to US 2004/0127496 and WO 03/022840. The activity/inhibition of V600E full-length B-Raf was estimated by measuring the incorporation of radio labeled phosphate from [γ-^33]ATP into FSBA-modified wild-type MEK (see Biological Example 1).
Activity of human recombinant B-Raf protein may be assessed in vitro by assay of the incorporation of radio labeled phosphate to recombinant MAP kinase (MEK), a known physiologic substrate of B-Raf, according to US 2004/0127496 and WO 03/022840. Catalytically active human recombinant B-Raf protein is obtained by purification from sf9 insect cells infected with a human B-Raf recombinant baculovirus expression vector.
The activity/inhibition of V600E full-length B-Raf was estimated by measuring the incorporation of radio labeled phosphate from [γ-^33]ATP into FSBA-modified wild-type MEK. The 30-μL, assay mixtures contained 25 mM Na Pipes, pH 7.2, 100 mM KCl, 10 mM MgCl2, 5 mM β-glycerophosphate, 100 μM Na Vanadate, 4 μM ATP, 500 nCi [γ-^33P]ATP, 1 μM FSBA-MEK and 20 nM V600E full-length B-Raf. Incubations were carried out at 22° C. in a Costar 3365 plate (Corning). Prior to the assay, the B-Raf and FSBA-MEK were preincubated together in assay buffer at 1.5× (20 μL of 30 nM and 1.5 μM, respectively) for 15 minutes, and the assay was initiated by the addition of 10 μL of […]. Following the 60-minute incubation, the assay mixtures were quenched by the addition of 100 μL of 25% TCA, the plate was mixed on a rotary shaker for 1 minute, and the product was captured on a Perkin-Elmer GF/B filter plate using a Tomtec Mach III Harvester. After sealing the bottom of the plate, 35 μL of Bio-Safe II (Research Products International) scintillation cocktail were added to each well and the plate was top-sealed and counted in a Topcount NXT (Packard).

[1] = 4 μM ATP, 60-minute incubation, representative data of multiple tests

T1 sequence (P15056 whole entry V600E): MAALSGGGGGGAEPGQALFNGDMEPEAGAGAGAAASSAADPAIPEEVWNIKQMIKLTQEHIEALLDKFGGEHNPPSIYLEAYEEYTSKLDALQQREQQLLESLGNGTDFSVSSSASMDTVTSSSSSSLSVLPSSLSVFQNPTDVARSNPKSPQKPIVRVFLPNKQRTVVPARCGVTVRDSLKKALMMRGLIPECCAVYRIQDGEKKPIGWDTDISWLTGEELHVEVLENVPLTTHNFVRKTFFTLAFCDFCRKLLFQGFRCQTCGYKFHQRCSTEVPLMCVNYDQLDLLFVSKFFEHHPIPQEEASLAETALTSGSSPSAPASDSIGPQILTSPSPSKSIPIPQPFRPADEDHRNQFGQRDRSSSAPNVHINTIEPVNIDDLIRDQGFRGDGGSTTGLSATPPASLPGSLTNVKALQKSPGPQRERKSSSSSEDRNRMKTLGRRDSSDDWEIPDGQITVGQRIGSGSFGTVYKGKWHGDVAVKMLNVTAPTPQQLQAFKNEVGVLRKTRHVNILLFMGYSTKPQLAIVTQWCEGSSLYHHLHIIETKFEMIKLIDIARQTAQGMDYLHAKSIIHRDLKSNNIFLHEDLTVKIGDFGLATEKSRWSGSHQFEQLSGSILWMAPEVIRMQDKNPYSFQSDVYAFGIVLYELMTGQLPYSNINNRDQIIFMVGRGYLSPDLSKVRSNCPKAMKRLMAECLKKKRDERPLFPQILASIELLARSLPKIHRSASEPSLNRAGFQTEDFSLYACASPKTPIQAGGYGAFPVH

IC50 [1] [nM] | IC50 (bound stated) [nM] | Structure (SMILES)
34.9 | < 100 | COc1n[nH]c2ncc(NC(=O)c3c(F)cc(F)c(OCc4ccccc4)c3F)cc12 [Example 32, 3-(benzyloxy)-2,4,6-trifluoro-N-(3-methoxy-1H-pyrazolo[3,4-b]pyridin-5-yl)benzamide]
17.2 | < 100 | COc1n[nH]c2ncc(NC(=O)c3c(F)ccc(OCc4ccccc4)c3Cl)cc12 [Example 33, 3-(benzyloxy)-2-chloro-6-fluoro-N-(3-methoxy-1H-pyrazolo[3,4-b]pyridin-5-yl)benzamide]
4.83 | < 100 | Cc1n[nH]c2ncc(NC(=O)c3c(Cl)ccc(OCc4ccccc4)c3F)cc12 [Example 34, 3-(benzyloxy)-6-chloro-2-fluoro-N-(3-methyl-1H-pyrazolo[3,4-b]pyridin-5-yl)benzamide]
2.1 | < 100 | O=C(Nc1cnc2[nH]nc(C3CC3)c2c1)c1c(Cl)ccc(OCc2ccccc2)c1F [Example 35, 3-(benzyloxy)-6-chloro-N-(3-cyclopropyl-1H-pyrazolo[3,4-b]pyridin-5-yl)-2-fluorobenzamide]
37.5 | < 100 | COc1n[nH]c2ncc(NC(=O)c3c(Cl)ccc(OCc4cccnc4)c3F)cc12 [Example 36, 6-chloro-2-fluoro-N-(3-methoxy-1H-pyrazolo[3,4-b]pyridin-5-yl)-3-(pyridin-3-ylmethoxy)benzamide]
3.8 | < 100 | COc1n[nH]c2ncc(NC(=O)c3c(Cl)ccc(OCc4cscn4)c3F)cc12 [Example 37, 6-chloro-2-fluoro-N-(3-methoxy-1H-pyrazolo[3,4-b]pyridin-5-yl)-3-(thiazol-4-ylmethoxy)benzamide]
15.1 | < 100 | COc1n[nH]c2ncc(NC(=O)c3c(Cl)ccc(OCc4cccc(C)n4)c3F)cc12 [Example 38, 6-chloro-2-fluoro-N-(3-methoxy-1H-pyrazolo[3,4-b]pyridin-5-yl)-3-((6-methylpyridin-2-yl)methoxy)benzamide]
64.2 | < 100 | COc1n[nH]c2ncc(NC(=O)c3c(Cl)ccc(OCc4ccncc4)c3F)cc12 [Example 39, 6-chloro-2-fluoro-N-(3-methoxy-1H-pyrazolo[3,4-b]pyridin-5-yl)-3-(pyridin-4-ylmethoxy)benzamide]
27 | < 100 | COc1n[nH]c2ncc(NC(=O)c3c(Cl)ccc(OCc4ccncn4)c3F)cc12 [Example 40, 6-chloro-2-fluoro-N-(3-methoxy-1H-pyrazolo[3,4-b]pyridin-5-yl)-3-(pyrimidin-4-ylmethoxy)benzamide]
152 | < 500 | COc1n[nH]c2ncc(NC(=O)c3c(Cl)ccc(OCc4ncccn4)c3F)cc12 [Example 41, 6-chloro-2-fluoro-N-(3-methoxy-1H-pyrazolo[3,4-b]pyridin-5-yl)-3-(pyrimidin-2-ylmethoxy)benzamide]
2.63 | < 100 | COc1n[nH]c2ncc(NC(=O)c3c(Cl)ccc(OCc4ccc(C(F)(F)F)nc4)c3F)cc12 [Example 43, 6-chloro-2-fluoro-N-(3-methoxy-1H-pyrazolo[3,4-b]pyridin-5-yl)-3-((6-(trifluoromethyl)pyridin-3-yl)methoxy)benzamide]
0.64 | < 100 | COc1n[nH]c2ncc(NC(=O)c3c(Cl)ccc(OCc4ccc(C)cn4)c3F)cc12 [Example 44, 6-chloro-2-fluoro-N-(3-methoxy-1H-pyrazolo[3,4-b]pyridin-5-yl)-3-((5-methylpyridin-2-yl)methoxy)benzamide]
0.53 | < 100 | COc1n[nH]c2ncc(NC(=O)c3c(Cl)ccc(OCc4ccc(Cl)cn4)c3F)cc12 [Example 45, 6-chloro-3-((5-chloropyridin-2-yl)methoxy)-2-fluoro-N-(3-methoxy-1H-pyrazolo[3,4-b]pyridin-5-yl)benzamide]
6.09 | < 100 | COc1n[nH]c2ncc(NC(=O)c3c(Cl)ccc(OCc4ccc(C)nc4)c3F)cc12 [Example 46, 6-chloro-2-fluoro-N-(3-methoxy-1H-pyrazolo[3,4-b]pyridin-5-yl)-3-((6-methylpyridin-3-yl)methoxy)benzamide]
4.14 | < 100 | COc1n[nH]c2ncc(NC(=O)c3c(Cl)ccc(OCc4ccc(I)cc4)c3F)cc12 [Example 47, 6-chloro-2-fluoro-3-(4-iodobenzyloxy)-N-(3-methoxy-1H-pyrazolo[3,4-b]pyridin-5-yl)benzamide]
1.68 | < 100 | COc1n[nH]c2ncc(NC(=O)c3c(Cl)ccc(OCc4ccc(Br)cc4)c3F)cc12 [Example 48, 3-(4-bromobenzyloxy)-6-chloro-2-fluoro-N-(3-methoxy-1H-pyrazolo[3,4-b]pyridin-5-yl)benzamide]
3.91 | < 100 | COc1n[nH]c2ncc(NC(=O)c3c(Cl)ccc(OCc4ccc(S(C)(=O)=O)cc4)c3F)cc12 [Example 49]
1.22 | < 100 | COc1n[nH]c2ncc(NC(=O)c3c(Cl)ccc(OCc4cccc(Cl)c4)c3F)cc12 [Example 50, 6-chloro-3-(3-chlorobenzyloxy)-2-fluoro-N-(3-methoxy-1H-pyrazolo[3,4-b]pyridin-5-yl)benzamide]
2.01 | < 100 | COc1n[nH]c2ncc(NC(=O)c3c(Cl)ccc(OCc4ccc(C#N)cc4)c3F)cc12 [Example 51, 6-chloro-3-(4-cyanobenzyloxy)-2-fluoro-N-(3-methoxy-1H-pyrazolo[3,4-b]pyridin-5-yl)benzamide]
70.4 | < 100 | COc1n[nH]c2ncc(NC(=O)c3c(Cl)ccc(OCc4scnc4C)c3F)cc12 [Example 52, 6-chloro-2-fluoro-N-(3-methoxy-1H-pyrazolo[3,4-b]pyridin-5-yl)-3-((4-methylthiazol-5-yl)methoxy)benzamide]
13.2 | < 100 | COc1n[nH]c2ncc(NC(=O)c3c(Cl)ccc(OCc4nccs4)c3F)cc12 [Example 53, 6-chloro-2-fluoro-N-(3-methoxy-1H-pyrazolo[3,4-b]pyridin-5-yl)-3-(thiazol-2-ylmethoxy)benzamide]
3.36 | < 100 | COc1n[nH]c2ncc(NC(=O)c3c(Cl)ccc(OCc4ccco4)c3F)cc12 [Example 54, 6-chloro-2-fluoro-3-(furan-2-ylmethoxy)-N-(3-methoxy-1H-pyrazolo[3,4-b]pyridin-5-yl)benzamide]
1.47 | < 100 | CCc1ccc(COc2ccc(Cl)c(C(=O)Nc3cnc4[nH]nc(OC)c4c3)c2F)cc1 [Example 55, 6-chloro-3-(4-ethylbenzyloxy)-2-fluoro-N-(3-methoxy-1H-pyrazolo[3,4-b]pyridin-5-yl)benzamide]
1.31 | < 100 | COc1ccc(COc2ccc(Cl)c(C(=O)Nc3cnc4[nH]nc(OC)c4c3)c2F)cc1 [Example 56, 6-chloro-2-fluoro-N-(3-methoxy-1H-pyrazolo[3,4-b]pyridin-5-yl)-3-(4-methoxy-benzyloxy)benzamide]
26 | < 100 | COc1n[nH]c2ncc(NC(=O)c3c(Cl)ccc(OCc4cnccn4)c3F)cc12 [Example 57, 6-chloro-2-fluoro-N-(3-methoxy-1H-pyrazolo[3,4-b]pyridin-5-yl)-3-(pyrazin-2-ylmethoxy)benzamide]
37.1 | < 100 | COc1n[nH]c2ncc(NC(=O)c3c(Cl)ccc(OCc4ccn(C)n4)c3F)cc12 [Example 58, 6-chloro-2-fluoro-N-(3-methoxy-1H-pyrazolo[3,4-b]pyridin-5-yl)-3-((1-methyl-1H-pyrazolo-3-yl)methoxy)benzamide]
10.6 | < 100 | COc1n[nH]c2ncc(NC(=O)c3c(Cl)ccc(OCc4csc(C)n4)c3F)cc12 [Example 59, 6-chloro-2-fluoro-N-(3-methoxy-1H-pyrazolo[3,4-b]pyridin-5-yl)-3-((2-methylthiazol-4-yl)methoxy)benzamide]
1.28 | < 100 | COc1n[nH]c2ncc(NC(=O)c3c(Cl)ccc(OCc4ccccc4Cl)c3F)cc12 [Example 60, 6-chloro-3-(2-chlorobenzyloxy)-2-fluoro-N-(3-methoxy-1H-pyrazolo[3,4-b]pyridin-5-yl)benzamide]
80.1 | < 100 | COc1n[nH]c2ncc(NC(=O)c3c(Cl)ccc(OCc4cc(C)on4)c3F)cc12 [Example 61, 6-chloro-2-fluoro-N-(3-methoxy-1H-pyrazolo[3,4-b]pyridin-5-yl)-3-((5-methylisoxazol-3-yl)methoxy)benzamide]
